In patent publication US10221163B2 (priority 2015, dated 2019):
Where a name gives a salt, the structure may show the parent alone. Read-outs that look alike come from different tables or passages of the source.

What was measured:
[1] = biological target: IMP-1 (Serratia marcescens, UniProt P52699); test: biochemical; assay type: biochemical; conditions: CCF2-FA substrate, 2 pM enzyme, 2 hours at 25° C.
In short: (§1)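 Fluorescence assay of metallo-β-lactamase activity using CCF2-FA, a cephalosporin-linked 7-hydroxycoumarin–fluorescein substrate. Inhibitor, enzyme and substrate were incubated together for 2 hours at 25° C. IC50 came from a 4-parameter fit of inhibition versus inhibitor concentration.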

[2] = biological target: NDM-1 (Klebsiella pneumoniae, UniProt C7C422); test: biochemical; assay type: biochemical; conditions: fluorescence assay, CCF2-FA substrate, 1 pM enzyme, 2 hours at 25° C.; read-out: NDM-1 IC50
In short: as §1

[3] = biological target: VIM-1 (Pseudomonas aeruginosa (strain ATCC 15692 / DSM 22644 / CIP 104116 / JCM 14847 / LMG 12228 / 1C / PRS 101 / PAO1), UniProt A0A0F7KYQ8); test: biochemical; conditions: CCF2-FA substrate, 30 pM enzyme, 2 hours at 25° C.
In short: as §1

[4] = system: Escherichia coli expressing NDM-1 (CLB30005, CLB30016); assay type: cell-based; conditions: with imipenem 1 μg/ml; for Escherichia coli expressing NDM-1 (CLB30016) MITC95: 95% inhibition of bacterial growth; for Escherichia coli MITC95: NDM-1 strain, 95% inhibition of growth
In short: (§2)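 Colonies grown overnight on blood agar at 35° C were suspended in saline, diluted 1:100 into 1.1×CAMHB and dispensed. Imipenem was added to 1 μg/ml, then test compound. After 22 hours to 24 hours at 35° C, absorbance was recorded.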

[5] = system: Klebsiella pneumoniae expressing VIM-1 (IHMA599644); assay type: cell-based; conditions: for Klebsiella pneumoniae expressing VIM-1 (IHMA599644) MITC95: with imipenem 1 μg/ml, 95% inhibition of bacterial growth; for Klebsiella pneumoniae MITC95: VIM-1 strain IHMA599644, with imipenem 1 μg/ml, 95% inhibition of growth
In short: as §2

[6] = system: Serratia marcescens expressing IMP-1 (CL5741); assay type: cell-based; conditions: for Serratia marcescens expressing IMP-1 (CL5741) MITC95: with imipenem 1 μg/ml, 95% inhibition of bacterial growth; for Serratia marcescens MITC95: IMP-1 strain CL5741, with imipenem 1 μg/ml, 95% inhibition of growth
In short: as §2

[7] = system: Pseudomonas aeruginosa efflux+ (MB9798), IMP-1; assay type: cell-based; design: Concentration of metallo-β-lactamase inhibitor which restores susceptibility of efflux + (MB9798) strain to imipenem: unit not given here; conditions: C, D serine β-lactamase inhibitor closely related to relebactam; for P. aeruginosa expressing IMP-1, efflux + (MB9798) MITC95: concentration restoring susceptibility to imipenem at 2 μg/mL in the presence of a class A; for Concentration of metallo-β-lactamase inhibitor which restores susceptibility of efflux + (MB9798) strain to imipenem: imipenem at 2 μg/mL, in the presence of a class A
In short: (§3)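 Microbroth MIC tests in PAO1-background strains with fixed imipenem and/or ceftazidime, usually at the CLSI breakpoint, plus fixed class A/C β-lactamase inhibitor against AmpC. MBL inhibitor titrated; concentration restoring susceptibility recorded and compared as fold difference between efflux+ MB9798 and efflux− MB9799.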

[8] = system: Pseudomonas aeruginosa efflux− (MB9799), IMP-1; assay type: cell-based; conditions: C, D serine β-lactamase inhibitor closely related to relebactam; for P. aeruginosa expressing IMP-1, efflux − (MB9799) MITC95: concentration restoring susceptibility to imipenem at 2 μg/mL in the presence of a class A; for Concentration of metallo-β-lactamase inhibitor which restores susceptibility of efflux − (MB9799) strain to imipenem: imipenem at 2 μg/mL, in the presence of a class A
In short: as §3

[9] = system: Pseudomonas aeruginosa MB9798 vs MB9799
In short: as §3

[10] = fluorescence assay, read-out: VIM-1 IC50
[11] = ratio MITC95 PA_9798/MITC95 PA_9799
[12] = fluorescence assay, read-out: IMP-1 IC50
[13] = fold difference between efflux+ (MB9798) and efflux− (MB9799) strains, imipenem at 2 μg/mL

Chain of IMP-1 (P52699 whole entry, looked up, species assumed): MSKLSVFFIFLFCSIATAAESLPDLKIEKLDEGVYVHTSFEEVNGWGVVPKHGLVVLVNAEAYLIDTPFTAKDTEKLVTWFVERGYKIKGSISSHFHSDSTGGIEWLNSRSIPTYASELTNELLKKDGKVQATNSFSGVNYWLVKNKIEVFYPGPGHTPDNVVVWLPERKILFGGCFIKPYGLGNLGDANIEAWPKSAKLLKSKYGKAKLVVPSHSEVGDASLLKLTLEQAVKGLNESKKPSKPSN
Chain of NDM-1 (C7C422 whole entry, looked up, species assumed): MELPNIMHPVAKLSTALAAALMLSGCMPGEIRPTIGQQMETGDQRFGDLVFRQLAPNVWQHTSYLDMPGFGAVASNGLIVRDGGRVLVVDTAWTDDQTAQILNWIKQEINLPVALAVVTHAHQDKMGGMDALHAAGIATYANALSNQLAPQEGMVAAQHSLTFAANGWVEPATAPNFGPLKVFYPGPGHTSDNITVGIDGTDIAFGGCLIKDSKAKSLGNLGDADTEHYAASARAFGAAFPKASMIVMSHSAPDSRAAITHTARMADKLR

Row | SMILES | IC50 ([1]; IMP-1 IC50, fluorescence assay) [nM] | IC50 [2] [nM] | IC50 [3, 10] [nM] | Escherichia coli expressing NDM-1 (CLB30016) MITC95 [4] [µM] | Klebsiella pneumoniae expressing VIM-1 (IHMA599644) MITC95 [5] [µM] | Serratia marcescens expressing IMP-1 (CL5741) MITC95 [6] [µM] | P. aeruginosa expressing IMP-1, efflux + (MB9798) MITC95 [7] [µM] | P. aeruginosa expressing IMP-1, efflux − (MB9799) MITC95 [8] [µM] | Efflux ratio [9, 11] | IC50 [1, 12] [nM] | IC50 ([3]; VIM-1 IC50, fluorescence assay) [nM] | Escherichia coli MITC95 [4] [µM] | Klebsiella pneumoniae MITC95 [5] [µM] | Serratia marcescens MITC95 [6] [µM] | Concentration of metallo-β-lactamase inhibitor which restores susceptibility of efflux + (MB9798) strain to imipenem [7] | Concentration of metallo-β-lactamase inhibitor which restores susceptibility of efflux − (MB9799) strain to imipenem [8] | Efflux ratio [9, 13]
1 | CNS(=O)(=O)c1ccc(-c2cccc3cn[nH]c23)c(-c2nn[nH]n2)c1S(N)(=O)=O [Example 7, 4-(1H-indazol-7-yl)-N1-methyl-3-(2H-tetrazol-5-yl)benzene-1,2-disulfonamide] | 0.214 | 0.101 | 0.108 | 6.25 | 6.25 | 3.125 | 25 | 1.563 | 15.99 |  |  |  |  |  |  |  | 
2 | NCc1nc(-c2cccc(-c3ccc(S(=O)(=O)N[C@H]4CNC[C@H]4N)c(S(N)(=O)=O)c3-c3nn[nH]n3)c2)c[nH]1 [Example 462] |  | 0.0954 |  |  |  |  |  |  |  | 1.29 | 0.227 | 1.563 | 1.563 | 1.563 | 1.563 | 0.7813 | 2.00
3 | Cn1nnc2ccc(-c3ccc(S(=O)(=O)N[C@@H]4CCNC4)c(S(N)(=O)=O)c3-c3nnn[nH]3)cc21 [Example 134, (R)-4-(1-methyl-1H-benzo[d][1,2,3]triazol-6-yl)-N1-(pyrrolidin-3-yl)-3-(1H-tetrazol-5-yl)benzene-1,2-disulfonamide] |  | 0.301 |  | 1.563 | 3.125 | 3.125 | 25 | 1.563 | 15.99 | 2.07 | 0.14 |  |  |  |  |  | 
4 | NS(=O)(=O)c1c(S(=O)(=O)N[C@H]2CCNC2)ccc(-c2cccc(Nc3ncc[nH]3)c2)c1-c1nn[nH]n1 [Example 472, dihydrochloride] |  | 0.114 |  |  |  |  |  |  |  | 0.847 | 0.189 | 0.7813 | 0.7813 | 0.7813 | 1.563 | 0.3906 | 4.00
5 | NCCNS(=O)(=O)c1ccc(-c2cccc3oc(C(=O)O)nc23)c(-c2nn[nH]n2)c1S(N)(=O)=O [Example 13, 4-(4-(N-(2-aminoethyl)sulfamoyl)-3-sulfamoyl-2-(2H-tetrazol-5-yl)phenyl)benzo[d]oxazole-2-carboxylic acid] |  | 0.0757 | 0.412 | 12.5 | 25 | 12.5 | 12.5 | 6.25 | 2.00 | 2.14 |  |  |  |  |  |  | 
6 | Nc1nc2c(-c3ccc(S(=O)(=O)N4CC5CC4CS5(=O)=O)c(S(N)(=O)=O)c3-c3nnn[nH]3)cccc2s1 (stereo not drawn) [Example 40, 3-(2-amino-1,3-benzothiazol-4-yl)-6-[(2,2-dioxido-2-thia-5-azabicyclo[2.2.1]hept-5-yl)sulfonyl]-2-(1H-tetrazol-5-yl)benzenesulfonamide] |  | 1.7 |  | 25 | 25 | 6.25 | 50 | 3.125 | 16.00 | 1.86 | 2.66 |  |  |  |  |  | 
7 | NC[C@H]1CCN(S(=O)(=O)c2ccc(-c3cccc4sc(N)nc34)c(-c3nnn[nH]3)c2S(N)(=O)=O)C1 [Example 74, 3-(2-amino-1,3-benzothiazol-4-yl)-6-{[(3R)-3-(aminomethyl)pyrrolidin-1-yl]sulfonyl}-2-(1H-tetrazol-5-yl)benzenesulfonamide] | 0.84 | 0.646 |  | 2.344 | 3.125 | 2.344 | 1.172 | 1.172 | 1.00 |  | 1.14 |  |  |  |  |  | 
8 | NCc1nc2cc(-c3ccc(S(=O)(=O)N[C@@H]4CCNC4)c(S(N)(=O)=O)c3-c3nn[nH]n3)ccc2[nH]1 [Example 274, (R)-4-(2-(aminomethyl)-1H-benzo[d]imidazol-5-yl)-N1-(pyrrolidin-3-yl)-3-(2H -tetrazol-5-yl)benzene-1,2-disulfonamide] |  | 0.0833 | 0.102 |  |  |  | 0.7813 | 0.7813 | 1.00 | 0.486 |  | 0.7813 | 1.563 | 1.563 |  |  | 
9 | Nc1nc2cccc(-c3ccc(S(=O)(=O)N4CCNCC4)c(S(N)(=O)=O)c3-c3nn[nH]n3)c2[nH]1 [Example 157, 3-(2-amino-3H-benzo[d]imidazol-4-yl)-6-(piperazin-1-ylsulfonyl)-2-(2H-tetrazol-5-yl)benzenesulfonamide] |  | 0.32 | 0.827 | 0.125 | 1.281 | 0.8906 | 1.781 | 0.4453 | 4.00 | 3.09 |  |  |  |  |  |  | 
10 | Nc1ncccc1-c1ccc(S(=O)(=O)NC[C@@H]2CNCCN2)c(S(N)(=O)=O)c1-c1nn[nH]n1 [Example 313, (S)-4-(2-aminopyridin-3-yl)-N1-(piperazin-2-ylmethyl)-3-(2H-tetrazol-5-yl)benzene-1,2-disulfonamide] |  | 0.0817 |  |  |  |  | 3.125 | 1.563 | 2.00 | 1.3 | 0.149 | 0.3906 | 3.125 | 0.7813 |  |  | 
